Source: patent US10689363B2 (Merck Patent GmbH, priority 2017, dated 2020)
Where two headings read alike, the source gives them in different places.

How the values were obtained:
[1] = Thermodynamic solubility (24 h, 37° C.) in FaSSIF medium or USP Phosphate buffer; assay type: physicochemical; conditions: 24 h; for Thermodynamic solubility FaSSIF pH 6.5: FaSSIF pH 6.5, 37° C.; for Thermodynamic solubility PBS buffer 7.4: USP Phosphate buffer pH 7.4, 37° C.
[2] = Mini-dissolution in FaSSIF / FeSSIF medium at 37° C.; assay type: physicochemical; conditions: for Dissolution levels in FaSSIF pH 6.5: FaSSIF pH 6.5, 37° C.; for Dissolution levels in FeSSIF pH 5.0: FeSSIF pH 5.0, 37° C.
Method: All dispersions were agitated at 37° C. for up to 2 hours. At defined time intervals (30 min. 60 min, 120 min), sample aliquots of homogeneous dispersions were withdrawn by a syringe, and filtrated via syringe filter adapters (PTFE, 0.45 μm).

[3] = Water Vapour Sorption isotherm (25° C., DVS-Intrinsic), hygroscopicity acc. to Ph. Eur. 5.11.; assay type: physicochemical; conditions: for water uptake levels: 25° C.
Method: (based on multiple measurements on different samples of form A2). […] DSC scan of form A2 was acquired on a Mettler-Toledo DSC 821 with a heating rate of 50 K/min, using nitrogen purge gas at 50 mL/min. TGA scan of form A2 was acquired on a Mettler-Toledo TGA 851 with a heating rate of 5 K/min, using nitrogen purge gas at 50 mL/min. […] Eur. Criteria (section 5.11.). Water Vapour Sorption isotherm was acquired on a DVS-Intrinsic system from SMS.
(based on multiple measurements on different samples of form NF5). […] Eur. Criteria (section 5.11.). […] Water Vapour Sorption isotherm was acquired on a DVS-Intrinsic system from SMS.
(based on multiple measurements on one sample of form NF6). […] Eur. Criteria (section 5.11.). […] Water Vapour Sorption isotherm was acquired on a DVS-Intrinsic system from SMS.
Eur. Criteria (section 5.11.). […] Water Vapour Sorption isotherm was acquired on a DVS-Intrinsic system from SMS.
Other physical properties of form Fumarate-NF1 include the following: ^1H-NMR spectroscopic data reveal a API:Fumarate molar ratio of 1:1. […] DSC scan of form Fumarate-NF1 was acquired on a Mettler-Toledo DSC 821 with a heating rate of 5 K/min, using nitrogen purge gas at 50 mL/min. TGA scan of form Fumarate-NF1 was acquired on a Mettler-Toledo TGA 851 with a heating rate of 5 K/min, using nitrogen purge gas at 50 mL/min. […] Eur. Criteria (section 5.11.). […] Water Vapour Sorption isotherm was acquired on a DVS-Intrinsic system from SMS.
Other physical properties of form Maleate-NF1 include the following: ^1H-NMR spectroscopic data reveal a API:Maleate molar ratio of 1:1. […] DSC scan of form Maleate-NF1 was acquired on a Mettler-Toledo DSC 821 with a heating rate of 5 K/min, using nitrogen purge gas at 50 mL/min. TGA scan of form Maleate-NF1 was acquired on a Mettler-Toledo TGA 851 with a heating rate of 5 K/min, using nitrogen purge gas at 50 mL/min. […] Form Maleate-NF1 can be classified as non-hygroscopic according to Ph. Eur. Criteria (section 5.11.). […] Water Vapour Sorption isotherm was acquired on a DVS-Intrinsic system from SMS.
Other physical properties of form Citrate-NF1 include the following: ^1H-NMR spectroscopic data reveal a API:Citrate molar ratio of 1:1. […] DSC scan of form Citrate-NF1 was acquired on a Mettler-Toledo DSC 821 with a heating rate of 5 K/min, using nitrogen purge gas at 50 mL/min. TGA scan of form Citrate-NF1 was acquired on a Mettler-Toledo TGA 851 with a heating rate of 5 K/min, using nitrogen purge gas at 50 mL/min. […] Eur. Criteria (section 5.11.). […] Water Vapour Sorption isotherm was acquired on a DVS-Intrinsic system from SMS.
(based on multiple measurements on different samples of form A1). […] DSC scan of form A1 was acquired on a Mettler-Toledo DSC 821 with a heating rate of 50 K/min, using nitrogen purge gas at 50 mL/min. TGA scan of form A1 was acquired on a Mettler-Toledo TGA 851 with a heating rate of 5 K/min, using nitrogen purge gas at 50 mL/min. […] Eur. Criteria (section 5.11.). […] Water Vapour Sorption isotherm was acquired on a DVS-Intrinsic system from SMS. […] Dissolution level of form A1 in Fasted-State Simulated Intestinal Fluid [FaSSIF, pH 6.5] at 37° C. was determined to be approx. 36 μg/mL (after 2 h), and dissolution level of form A1 in Fed-State Simulated Intestinal Fluid [FeSSIF, pH 5.0] at 37° C. was determined to be approx. 214 μg/mL (after 2 h), respectively (see example 11).
All forms were characterized according to standard methods which are found in e.g. Rolf Hilfiker, ‘Polymorphism in the Pharmaceutical Industry’. Wiley-VCH. Weinheim 2006 (Chapter 6: X-Ray Diffraction. Chapter 6: Vibrational Spectroscopy. Chapter 3: Thermal Analysis, Chapter 9: Water Vapour Sorption, and references therein); and H. G. Brittain, ‘Polymorphism in Pharmaceutical Solids. Vol. 95. Marcel Dekker Inc., New York 1999 (Chapter 6 and references therein).

[4] = pH 6.5
[5] = relative humidity range 0-80% rh
[6] = relative humidity range 90-98% rh

Compound	Thermodynamic solubility FaSSIF pH 6.5 [1]	Thermodynamic solubility FaSSIF pH 6.5 ([1]; listed as Free base form A1) [μg/mL]	Thermodynamic solubility PBS buffer 7.4 [1]	Thermodynamic solubility PBS buffer 7.4 ([1]; listed as Free base form A1) [µg/mL]	Dissolution levels in FaSSIF pH 6.5 ([2]; 30 min) [μg/mL]	Dissolution levels in FaSSIF pH 6.5 ([2]; 60 min) [μg/mL]	Dissolution levels in FaSSIF pH 6.5 ([2]; 120 min (2 h))	Dissolution levels in FaSSIF pH 6.5 ([2]; 120 min (2 h), listed as Free base form Al) [μg/mL]	Dissolution levels in FeSSIF pH 5.0 ([2]; 30 min) [μg/mL]	Dissolution levels in FeSSIF pH 5.0 ([2]; 60 min) [μg/mL]	Dissolution levels in FeSSIF pH 5.0 ([2]; 120 min (2 h))	Dissolution levels in FeSSIF pH 5.0 ([2]; 120 min (2 h), listed as Free base form A1) [μg/mL]	hygroscopicity classification according to Ph. Eur. Criteria (section 5.11.) [3]	water uptake levels [3, 5] [wt %]	water uptake levels [3, 6] [wt %]	hygroscopicity classification according to Ph. Eur. Criteria (section 5.11.) ([3]; listed as NF5)	water uptake levels ([3]; relative humidity level of 98% rh) [wt %]	water uptake levels ([3]; relative humidity range 0-90% rh) [wt %]	kinetic solubility levels (4 h), factor higher vs form A1 [4]	hygroscopicity classification according to Ph. Eur. Criteria (section 5.11.) ([3]; listed as NF6)
C=CC(=O)N1CCC(CNc2ncnc(N)c2-c2ccc(Oc3ccccc3)cc2)CC1 [form A1, 1-(4-{[6-Amino-5-(4-phenoxy-phenyl)-pyrimidin-4-ylamino]-methyl}-piperidin-1-yl)-propenone]	approx. 21 μg/mL	21	approx. 14 μg/mL	14	25	33	approx. 36 μg/mL	36	190	205	approx. 214 μg/mL	214	slightly hygroscopic	≤ 1	≤ 2					
C=CC(=O)N1CCC(CNc2ncnc(N)c2-c2ccc(Oc3ccccc3)cc2)CC1 [form NF5, 1-(4-{[6-Amino-5-(4-phenoxy-phenyl)-pyrimidin-4-ylamino]-methyl}-piperidin-1-yl)-propenone]													slightly hygroscopic			Slightly hygroscopic	≤ 2	≤ 1	~1.5	
C=CC(=O)N1CCC(CNc2ncnc(N)c2-c2ccc(Oc3ccccc3)cc2)CC1 [form NF6, 1-(4-{[6-Amino-5-(4-phenoxy-phenyl)-pyrimidin-4-ylamino]-methyl}-piperidin-1-yl)-propenone]													slightly hygroscopic	≤ 2	≤ 3				~3	Slightly hygroscopic
